In the assay the target is human A2a adenosine receptor (Homo sapiens (Human), UniProt P29274). Put plainly: A2a binding affinity using radioligand binding, Method (A). The conditions noted are these: Method (A): [3H]SCH58261 filtration binding. The source says:
The A2a receptor affinity binding assay measured the amount of binding of a tritiated ligand with high affinity for the A2a adenosine receptor to membranes made from HEK293 or CHO cells recombinantly expressing the human A2a adenosine receptor, in the presence of varying concentrations of a compound of the invention. The data were generated using either filtration binding or a homogenous scintillation proximity assay (SPA).
Method (A): Measurement of A2a Binding Affinity Using Radioligand Binding
148 μL (5 μg/mL) membranes (Perkin Elmer, Cat. No. RBHA2aM400UA) and 2 μL compounds of the invention to be tested (test compound) were transferred to individual wells of a 96-well polypropylene assay plate and incubated for 15 to 30 min at room temperature. [^3H] SCH58261 ((7-(2-phenylethyl)-5-amino-2-(2-furyl)-pyrazolo-[4,3-e]-1,2,4-triazolo[1,5-c]pyrimidine)) was diluted in assay buffer (50 mM Tris pH 7.4, 10 mM MgCl2, 0.005% Tween20) to a concentration of 4 nM and 50 μL transferred to each well of the assay plate. […] The assay plate was incubated at room temperature for 60 min with agitation. […] Filtering was achieved by aspirating the contents of the assay plate for 5 sec, then washing and aspirating the contents three times with ice-cooled wash buffer (50 mM Tris-HCl pH 7.4, 150 mM NaCl) and allowing the vacuum manifold to dry the plate for […]. The filter plate was incubated for at least 1 h at 55° C. and allowed to dry. The bottom of the filter plate was sealed with backing tape. […] The plate was incubated for at least 20 min, and then the amount of radioactivity remaining in each well was determined using a TopCount® (Perkin Elmer) scintillation counter. After normalization to total and non-specific binding, the percent effect at each compound concentration was calculated. The plot of percent effect versus the log of compound concentration was analyzed electronically using a 4-parameter logistic fit based on the Levenberg-Marquardt algorithm to generate IC50 values.

human A2a adenosine receptor, sequence (P29274 whole entry): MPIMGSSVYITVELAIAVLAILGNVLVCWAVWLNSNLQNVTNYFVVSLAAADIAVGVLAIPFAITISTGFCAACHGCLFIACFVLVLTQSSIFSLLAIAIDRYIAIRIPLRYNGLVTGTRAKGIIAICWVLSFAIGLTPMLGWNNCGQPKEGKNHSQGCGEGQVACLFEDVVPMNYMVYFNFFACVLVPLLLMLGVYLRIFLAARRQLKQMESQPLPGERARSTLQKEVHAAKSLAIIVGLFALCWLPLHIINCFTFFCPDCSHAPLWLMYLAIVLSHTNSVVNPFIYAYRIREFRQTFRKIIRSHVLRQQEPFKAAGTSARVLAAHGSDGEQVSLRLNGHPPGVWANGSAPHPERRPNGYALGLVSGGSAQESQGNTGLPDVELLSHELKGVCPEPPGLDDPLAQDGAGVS

Regarding `Nc1nc(-c2ncco2)cn2nc(Cc3ccccc3)nc12` [Example 1.2, 2-benzyl-6-(oxazol-2-yl)-[1,2,4]triazolo[1,5-a]pyrazin-8-amine], the IC50 is 3.1 nM.

As to `Cc1c(-c2nccs2)nc(N)c2nc(Cc3ccccc3)nn12` [Example 1.3], the 50% inhibitory concentration (IC50) is 1.3 nM.

In the case of `Cc1c(-c2ncccn2)nc(N)c2nc(Cc3ccccc3)nn12` [Example 1.4], the IC50 came out at 3.6 nM.

On to `Cc1nc2c(N)nc(-c3ncco3)cn2n1` [Example 1.5], for which the IC50 was found to be 909 nM.

In the case of `Cc1nc2c(o1)CN(CCc1nc3c(C)c(-c4ncco4)nc(N)n3n1)C2` [Example 1.7], the IC50 amounted to 7.4 nM.

Compound `Cc1nc2cc(-c3ncco3)nc(N)n2n1` [Example 1.9] returned a concentration for half-maximal inhibition (IC50) of 534 nM.

Compound `Nc1nc(-c2ccc(F)cc2)cn2nc(Cc3ccccc3)nc12` [Example 2.3, 2-benzyl-6-(4-fluorophenyl)-[1,2,4]triazolo[1,5-a]pyrazin-8-amine] registered an IC50 of 2.5 nM.

`Nc1nc(-c2ccccc2)cn2nc(Cc3ccccc3)nc12` [Example 2.4] had an IC50 of 1.6 nM.

For `Cc1nc2c(N)nc(-c3ccccc3)cn2n1` [Example 2.5], the IC50 was 112 nM.

`Cc1nc2c(N)nc(-c3ccc(F)cc3)cn2n1` [Example 2.6] displayed an IC50 of 523 nM.

For `Nc1nc(-c2cc(F)ccc2F)cn2nc(Cc3ccccc3)nc12` [Example 2.7], the IC50 came to 2.2 nM.

Regarding `Cc1c(-c2ccc(F)cc2)nc(N)n2nc(CCN3CCn4c(cnc4C(C)C)C3)nc12` [Example 2.17], the IC50 amounted to 124 nM.

Take `Cc1nc2c(o1)CN(CCc1nc3c(C)c(-c4cnco4)nc(N)n3n1)C2` [Example 2.25]: the IC50 stood at 26.7 nM.

For `Cc1c(-c2cccc(F)c2)nc(N)c2nc(Cc3ccccc3)nn12` [Example 3.3, 2-benzyl-6-(3-fluorophenyl)-5-methyl-[1,2,4]triazolo[1,5-a]pyrazin-8-amine], the IC50 was 1.1 nM.

Regarding `Cc1c(-c2cc(F)ccc2F)nc(N)c2nc(Cc3ccccc3)nn12` [Example 3.4], the 50% inhibitory concentration (IC50) stood at 1.1 nM.

Compound `Cc1c(-c2ccccc2)nc(N)c2nc(Cc3ccccc3)nn12` [Example 3.5] gave an IC50 of 2.2 nM.

In the case of `Cc1c(-c2ccccc2F)nc(N)c2nc(Cc3ccccc3)nn12` [Example 3.6], the IC50 was 6.4 nM.

Take `COc1ccc(-c2nc(N)c3nc(Cc4ccccc4)nn3c2C)cc1Cl` [Example 3.7]: the half-maximal inhibitory concentration (IC50) was 11 nM.

In turn, `COc1ccc(-c2nc(N)c3nc(Cc4ccccc4)nn3c2C)cc1F` [Example 3.8] gave an IC50 of 20.6 nM.

As to `Cc1c(-c2cncc(F)c2)nc(N)c2nc(Cc3ccccc3)nn12` [Example 3.9], the IC50 came out at 24.5 nM.

The compound `Cc1c(-c2ccc(F)c(F)c2)nc(N)c2nc(Cc3ccccc3)nn12` [Example 3.10] yielded a half-maximal inhibitory concentration (IC50) of 27.9 nM.

`COc1cccc(-c2nc(N)c3nc(Cc4ccccc4)nn3c2C)c1F` [Example 3.11] displayed an IC50 of 28.5 nM.

`Cc1c(-c2ccc(Cl)c(Cl)c2)nc(N)c2nc(Cc3ccccc3)nn12` [Example 3.12] yielded an IC50 of 38 nM.

As for `COc1ncc(-c2nc(N)c3nc(Cc4ccccc4)nn3c2C)cc1F` [Example 3.13], the IC50 was 40 nM.

Consider `COc1ccc(-c2nc(N)c3nc(Cc4ccccc4)nn3c2C)c(F)c1` [Example 3.14], for which the IC50 is 40.6 nM.

Regarding `Cc1cc(-c2nc(N)c3nc(Cc4ccccc4)nn3c2C)ccn1` [Example 3.15], the IC50 amounted to 54.8 nM.

On to `Cc1c(-c2ccc(Cl)c(F)c2)nc(N)c2nc(Cc3ccccc3)nn12` [Example 3.16], for which the IC50 stood at 73.9 nM.

`Cc1c(-c2ccc(F)cc2F)nc(N)c2nc(Cc3ccccc3)nn12` [Example 3.17]: the IC50 came out at 82.2 nM.

Turning to `Cc1c(-c2ccc(Cl)cc2)nc(N)c2nc(Cc3ccccc3)nn12` [Example 3.18], the IC50 amounted to 84.4 nM.

With `Cc1c(-c2ccc(OC(F)F)cc2)nc(N)c2nc(Cc3ccccc3)nn12` [Example 3.19], the IC50 came to 121 nM.

`Cc1c(-c2cccc(C(F)(F)F)n2)nc(N)c2nc(Cc3ccccc3)nn12` [Example 3.20] came in with an IC50 of 157 nM.

Compound `Cc1c(-c2ccc(Cl)cc2F)nc(N)c2nc(Cc3ccccc3)nn12` [Example 3.21] yielded an IC50 of 168 nM.

In turn, `Cc1c(-c2cnn(C(F)(F)F)c2)nc(N)c2nc(Cc3ccccc3)nn12` [Example 3.44] returned an IC50 of 490 nM.

Compound `Cc1c(-c2cc(C(F)(F)F)nn2C)nc(N)c2nc(Cc3ccccc3)nn12` [Example 3.45] had an IC50 of 17.8 nM.

`Cc1c(-c2ncco2)nc(N)c2nc(Cc3ccccc3C(F)(F)F)nn12` [Example 7.3, 5-methyl-6-(oxazol-2-yl)-2-(2-(trifluoromethyl)benzyl)-[1,2,4]triazolo[1,5-a]pyrazin-8-amine] came in with an IC50 of 0.5 nM.

Take `Cc1c(-c2cc(F)ccc2F)nc(N)c2nc(Cc3ccc(C(F)(F)F)cc3)nn12` [Example 7.4, 6-(2,5-difluorophenyl)-5-methyl-2-(4-(trifluoromethyl)benzyl)-[1,2,4]triazolo[1,5-a]pyrazin-8-amine]: the IC50 turned out to be 15.3 nM.

`Nc1nc(-c2ccccc2)cc2nc(CCO)nn12` [Example 14.3, 2-(5-amino-7-phenyl-[1,2,4]triazolo[1,5-c]pyrimidin-2-yl)ethan-1-ol] came in with a 50% inhibitory concentration (IC50) of 493 nM.

`Cc1c(-c2ncco2)nc(N)n2nc(CCN3CCc4c(ncn4C4CCCC4)C3)nc12` [Example 17.18, 2-(2-(1-cyclopentyl-1,4,6,7-tetrahydro-5H-imidazo[4,5-c]pyridin-5-yl)ethyl)-8-methyl-7-(oxazol-2-yl)-[1,2,4]triazolo[1,5-c]pyrimidin-5-amine] returned an IC50 of 0.6 nM.

`Cc1c(-c2ncco2)nc(N)n2nc(CCN3CCc4ncn(C5CCCC5)c4C3)nc12` [Example 17.19, 2-(2-(3-cyclopentyl-3,4,6,7-tetrahydro-5H-imidazo[4,5-c]pyridin-5-yl)ethyl)-8-methyl-7-(oxazol-2-yl)-[1,2,4]triazolo[1,5-c]pyrimidin-5-amine] returned an IC50 of 3 nM.

Take `Nc1nc(-c2ncco2)cc2nc(CCN3CC(F)(F)C3)nn12` [Example 17.20, 2-(2-(3,3-difluoroazetidin-1-yl)ethyl)-7-(oxazol-2-yl)-[1,2,4]triazolo[1,5-c]pyrimidin-5-amine]: the IC50 worked out at 90.9 nM.

Regarding `Nc1nc(-c2ncco2)cc2nc(CCN3CCc4[nH]ncc4C3)nn12` [Example 17.21, 7-(oxazol-2-yl)-2-(2-(1,4,6,7-tetrahydro-5H-pyrazolo[4,3-c]pyridin-5-yl)ethyl)-[1,2,4]triazolo[1,5-c]pyrimidin-5-amine], the IC50 amounted to 450 nM.

Regarding `Cn1nc(C(F)(F)F)c2c1CCN(CCc1nc3cc(-c4ncco4)nc(N)n3n1)C2` [Example 17.22, 2-(2-(1-methyl-3-(trifluoromethyl)-1,4,6,7-tetrahydro-5H-pyrazolo[4,3-c]pyridin-5-yl)ethyl)-7-(oxazol-2-yl)-[1,2,4]triazolo[1,5-c]pyrimidin-5-amine], the IC50 amounted to 78.9 nM.

Turning to `Nc1nc(-c2ncco2)cc2nc(CCN3CCN(CC4CC4)C(=O)C3)nn12` [Example 17.23, 4-(2-(5-amino-7-(oxazol-2-yl)-[1,2,4]triazolo[1,5-c]pyrimidin-2-yl)ethyl)-1-(cyclopropylmethyl)piperazin-2-one], the IC50 worked out at 122 nM.

On to `Cc1cc2n(n1)CCN(CCc1nc3cc(-c4ncco4)nc(N)n3n1)C2` [Example 17.24, 2-(2-(2-methyl-6,7-dihydropyrazolo[1,5-a]pyrazin-5(4H)-yl)ethyl)-7-(oxazol-2-yl)-[1,2,4]triazolo[1,5-c]pyrimidin-5-amine], for which the IC50 was found to be 319 nM.

Turning to `Nc1nc(-c2ncco2)cc2nc(CCN3CCc4nccnc4C3)nn12` [Example 17.25, 2-(2-(7,8-dihydropyrido[3,4-b]pyrazin-6(5H)-yl)ethyl)-7-(oxazol-2-yl)-[1,2,4]triazolo[1,5-c]pyrimidin-5-amine], the IC50 stood at 402 nM.

In turn, `CC(C)c1ncc2n1CCN(CCc1nc3c(N)nc(-c4ncco4)cn3n1)C2` [Example 17.26, 2-(2-(3-isopropyl-5,6-dihydroimidazo[1,5-a]pyrazin-7(8H)-yl)ethyl)-6-(oxazol-2-yl)-[1,2,4]triazolo[1,5-a]pyrazin-8-amine] registered an IC50 of 629 nM.

In turn, `Nc1nc(-c2ccccc2)cc2nc(CCN3CCn4c(cnc4C4CCC4)C3)nn12` [Example 17.27, 2-(2-(3-cyclobutyl-5,6-dihydroimidazo[1,5-a]pyrazin-7(8H)-yl)ethyl)-7-phenyl-[1,2,4]triazolo[1,5-c]pyrimidin-5-amine] had an IC50 of 39.9 nM.

`Cc1c(-c2ncco2)nc(N)n2nc(Cc3ccccc3)nc12` [Example 19.3, 2-benzyl-8-methyl-7-(oxazol-2-yl)-[1,2,4]triazolo[1,5-c]pyrimidin-5-amine] gave an IC50 of 0.5 nM.

`Cc1c(-c2ncco2)nc(N)c2nc(Cc3ccccc3)nn12` [Example 20.2, 2-benzyl-5-methyl-6-(oxazol-2-yl)-[1,2,4]triazolo[1,5-a]pyrazin-8-amine] showed an IC50 of 0.5 nM.

Values taken from patent US12414952B2 (Merck Sharp & Dohme LLC, priority 2018, dated 2025).
